Laboratory results from article PMC9721025, “Pharmacokinetic study of the main components of Tanreqing capsules and Tanreqing injections in beagles by liquid chromatography–tandem mass spectrometry” (Chinese Medicine, 2022).

Legend:
[1] = Pharmacokinetics in beagles, single-dose regimen of TRQI (i.v.) or TRQC (oral), plasma LC-MS/MS; assay type: in vivo, beagle; conditions: beagle, dog, plasma; for AUC(0-t): read-out: AUC0–24 h; for Cmax / Tmax / half-life: mean of six beagles
Experimental: (§1) 100 μL plasma sample was drawn and transferred to 1.5 mL centrifuge tube prior to 300 μL protein precipitant (3:1 [v/v] methanol/acetonitrile, containing 0.1% formic acid and 100 ng/mL IS) was added, and then the sample was vortex-mixed for 3 min. The mixture was centrifuged at 20,000 ×g for 10 min, and 100 μL supernatant was transferred to the injection vial and analyzed directly by LC–MS/MS.
(§2) This study was carried out in six beagles (three males and three females, 9.0–12.0 kg each), that were purchased from Junda Pet Hospital (Shanghai, China). This experimental protocol was approved by the Experimental Animal Ethics Committee of the Naval Military Medical University (Shanghai, China).
The six healthy beagles were divided into two groups: beagles 1–3 were all male and were assigned to the first group, and beagles 4–6 were all females and assigned to the second group. The two-cycle, crossover study was designed with a 7-day wash out period. For the single-administration process, the dogs in the first group were injected intravenously with 0.5 mL/kg TRQI (one-third of the normal daily dose), and blood samples were collected at 0, 5, 10, 15, 20, 30, and 45 min and then at 1, 2, 4, 6, 8, 12, and 24 h (a total of 14 time points) after injection. For each blood sample, 1 mL of blood was collected from the forelimb vein in heparin-treated tubes. The dogs in the second group were orally administrated 0.09 g/kg TRQC (one-third of the normal daily dose, and blood samples were collected in the same manner at 0, 10, 20, and 40 min and then at 1, 1.5, 2, 2.5, 3, 4, 6, 8, 12, and 24 h (a total of 14 time points). All blood samples were centrifuged at 4000 × g for 5 min, and each supernatant was collected and aliquoted. After a 7-day wash out period, the dogs in each group were administrated the other Tanreqing formulation in a crossover design, and blood samples were collected and processed in the same way.
(§3) All data obtained were analyzed using Drug and Statistics (DAS) 2.0 software (Chinese Society of Pharmacology), and a non-compartment analysis was used to calculate plasma pharmacokinetic parameters. The principal components of TRQI and TRQC were compared with an analysis of variance (ANOVA) and/or a two-tailed student-t test.

[2] = Pharmacokinetics in beagles, multiple-dose regimen (once per day for 7 days) of TRQI or TRQC, plasma LC-MS/MS; assay type: in vivo; conditions: beagle, dog; for Cmax at 7 days / Tmax at 7 days / half-life at 7 days: mean
Experimental: as §1, §2
After the end of the single-dose experiment, the dogs in group one were given 0.5 mL/kg injection of TRQI once per day for 7 days following the wash out period, and the dogs in group two were given 0.09 g/kg TRQC once per day for 7 days. After the seventh administration, blood samples were collected at 0, 10, 20, and 40 min and then at 1, 1.5, 2, 2.5, 3, 4, 6, 8, 12, and 24 h (a total of 14 time points) and were processed as described in “Single-dose regimen” section. The resulting plasma samples were used to determine the steady-state plasma concentration of TRQI and TRQC. A crossover study was again carried out in both groups, as described in “Single-dose regimen” section, after a 7-day washing period.
as §3

[3] = Stability of analytes in dog plasma (QC samples); assay type: in vitro ADME
Experimental: The stock solutions of all analytes were further mixed and diluted with methanol/water (10:90, v/v) solution to prepare the working solutions. […] The QC samples were stored in a refrigerator at – 80 °C until retrieval (see Additional file 1). The stability, which includes short-term stability (6 h at room temperature), long-term stability (− 80 °C for 30 days in the refrigerator), and freeze–thaw stability (three cycles from − 80 °C to room temperature), were assessed using QC samples at three concentration levels in three replicates. […] Similarly, there were no obvious effects on the analysis results of the samples with respect to short-term stability or long-term storage.

[4] = both sexes, iv, single i.v. dose of TRQI 0.5 mL/kg
[5] = both sexes, single oral dose of TRQC 0.09 g/kg
[6] = both sexes, iv, TRQI 0.5 mL/kg once per day for 7 days
[7] = both sexes, po, TRQC 0.09 g/kg once per day for 7 days
[8] = n = 3, high QC: nominal 200 ng/mL baicalin, 1000 ursodeoxycholic acid, 100 chenodeoxycholic acid and chlorogenic acid
[9] = n = 3, low QC: nominal 4 ng/mL baicalin, 20 ursodeoxycholic acid, 2 chenodeoxycholic acid and chlorogenic acid
[10] = n = 3, middle QC: nominal 20 ng/mL baicalin, 100 ursodeoxycholic acid, 10 chenodeoxycholic acid and chlorogenic acid

AUC(0-t) ([1]; both sexes, iv, 0.5 mL/kg, single TRQI 0.5 mL/kg, Mean): 20.3 ng·h/mL | Cmax [1, 4]: 26.6 ng/mL | Tmax [1, 4]: 0.13 h | half-life [1, 4]: 0.89 h | AUC(0-t) ([1]; both sexes, po, 0.09 g/kg, single TRQCs 0.09 g/kg, Mean): 29.1 ng·h/mL | Cmax [1, 5]: 8.58 ng/mL | Tmax [1, 5]: 3.75 h | half-life [1, 5]: 1.45 h | AUC(0-t) ([1]; female, iv, 0.5 mL/kg, single TRQI 0.5 mL/kg, beagle No 4): 11.2 ng·h/mL | AUC(0-t) ([1]; female, iv, 0.5 mL/kg, single TRQI 0.5 mL/kg, beagle No 5): 15.2 ng·h/mL | AUC(0-t) ([1]; female, iv, 0.5 mL/kg, single TRQI 0.5 mL/kg, beagle No 6): 24.8 ng·h/mL | AUC(0-t) ([1]; female, po, 0.09 g/kg, single TRQCs 0.09 g/kg, beagle No 4): 13.9 ng·h/mL | AUC(0-t) ([1]; male, iv, 0.5 mL/kg, single TRQI 0.5 mL/kg, beagle No 1): 29.6 ng·h/mL | AUC(0-t) ([1]; male, iv, 0.5 mL/kg, single TRQI 0.5 mL/kg, beagle No 2): 17.8 ng·h/mL | AUC(0-t) ([1]; male, po, 0.09 g/kg, single TRQCs 0.09 g/kg, beagle No 1): 21.1 ng·h/mL | AUC(0-t) ([1]; male, po, 0.09 g/kg, single TRQCs 0.09 g/kg, beagle No 2): 48.1 ng·h/mL | AUC(0-t) ([1]; male, po, 0.09 g/kg, single TRQCs 0.09 g/kg, beagle No 3): 33.2 ng·h/mL | AUC(0-inf) ([2]; both sexes, iv, 0.5 mL/kg, TRQI 0.5 mL/kg for 7 days, Mean): 15.9 ng·h/mL | AUC(0-t) ([2]; both sexes, iv, 0.5 mL/kg, TRQI 0.5 mL/kg for 7 days, Mean, read-out: AUC0–24 h): 15.4 ng·h/mL | Cmax at 7 days [2, 6]: 20.3 ng/mL | Tmax at 7 days [2, 6]: 0.18 h | half-life at 7 days [2, 6]: 0.88 h | AUC(0-inf) ([2]; both sexes, po, 0.09 g/kg, TRQC 0.09 g/kg for 7 days, Mean): 12.3 ng·h/mL | AUC(0-t) ([2]; both sexes, po, 0.09 g/kg, TRQC 0.09 g/kg for 7 days, Mean, read-out: AUC0–24 h): 11.7 ng·h/mL | Cmax at 7 days [2, 7]: 3.9 ng/mL | Tmax at 7 days [2, 7]: 3.17 h | half-life at 7 days [2, 7]: 1.56 h | AUC(0-inf) ([2]; female, iv, 0.5 mL/kg, TRQI 0.5 mL/kg for 7 days, beagle No. 4): 19.3 ng·h/mL | AUC(0-t) ([2]; female, iv, 0.5 mL/kg, TRQI 0.5 mL/kg for 7 days, beagle No. 4, read-out: AUC0–24 h): 19.1 ng·h/mL | AUC(0-inf) ([2]; female, iv, 0.5 mL/kg, TRQI 0.5 mL/kg for 7 days, beagle No. 5): 24.4 ng·h/mL | AUC(0-t) ([2]; female, iv, 0.5 mL/kg, TRQI 0.5 mL/kg for 7 days, beagle No. 5, read-out: AUC0–24 h): 23.9 ng·h/mL | AUC(0-inf) ([2]; female, iv, 0.5 mL/kg, TRQI 0.5 mL/kg for 7 days, beagle No. 6): 30.7 ng·h/mL | AUC(0-t) ([2]; female, iv, 0.5 mL/kg, TRQI 0.5 mL/kg for 7 days, beagle No. 6, read-out: AUC0–24 h): 30 ng·h/mL | AUC(0-inf) ([2]; female, po, 0.09 g/kg, TRQC 0.09 g/kg for 7 days, beagle No. 4): 23.2 ng·h/mL | AUC(0-t) ([2]; female, po, 0.09 g/kg, TRQC 0.09 g/kg for 7 days, beagle No. 4, read-out: AUC0–24 h): 22.6 ng·h/mL | AUC(0-inf) ([2]; female, po, 0.09 g/kg, TRQC 0.09 g/kg for 7 days, beagle No. 5): 13.3 ng·h/mL | AUC(0-t) ([2]; female, po, 0.09 g/kg, TRQC 0.09 g/kg for 7 days, beagle No. 5, read-out: AUC0–24 h): 11.4 ng·h/mL | AUC(0-inf) ([2]; female, po, 0.09 g/kg, TRQC 0.09 g/kg for 7 days, beagle No. 6): 27 ng·h/mL | AUC(0-t) ([2]; female, po, 0.09 g/kg, TRQC 0.09 g/kg for 7 days, beagle No. 6, read-out: AUC0–24 h): 26.9 ng·h/mL | AUC(0-inf) ([2]; male, iv, 0.5 mL/kg, TRQI 0.5 mL/kg for 7 days, beagle No. 1): 6.07 ng·h/mL | AUC(0-t) ([2]; male, iv, 0.5 mL/kg, TRQI 0.5 mL/kg for 7 days, beagle No. 1, read-out: AUC0–24 h): 6.07 ng·h/mL | AUC(0-inf) ([2]; male, iv, 0.5 mL/kg, TRQI 0.5 mL/kg for 7 days, beagle No. 2): 5.59 ng·h/mL | AUC(0-t) ([2]; male, iv, 0.5 mL/kg, TRQI 0.5 mL/kg for 7 days, beagle No. 2, read-out: AUC0–24 h): 5.24 ng·h/mL | AUC(0-inf) ([2]; male, iv, 0.5 mL/kg, TRQI 0.5 mL/kg for 7 days, beagle No. 3): 9.2 ng·h/mL | AUC(0-t) ([2]; male, iv, 0.5 mL/kg, TRQI 0.5 mL/kg for 7 days, beagle No. 3, read-out: AUC0–24 h): 8.21 ng·h/mL | AUC(0-inf) ([2]; male, po, 0.09 g/kg, TRQC 0.09 g/kg for 7 days, beagle No. 1): 1.31 ng·h/mL | AUC(0-t) ([2]; male, po, 0.09 g/kg, TRQC 0.09 g/kg for 7 days, beagle No. 1, read-out: AUC0–24 h): 0.72 ng·h/mL | AUC(0-inf) ([2]; male, po, 0.09 g/kg, TRQC 0.09 g/kg for 7 days, beagle No. 2): 3.2 ng·h/mL | AUC(0-t) ([2]; male, po, 0.09 g/kg, TRQC 0.09 g/kg for 7 days, beagle No. 2, read-out: AUC0–24 h): 3.19 ng·h/mL | AUC(0-inf) ([2]; male, po, 0.09 g/kg, TRQC 0.09 g/kg for 7 days, beagle No. 3): 5.62 ng·h/mL | AUC(0-t) ([2]; male, po, 0.09 g/kg, TRQC 0.09 g/kg for 7 days, beagle No. 3, read-out: AUC0–24 h): 5.21 ng·h/mL | Freeze-thaw stability (3 cycles) Mean ± S.D. concentration [3, 8]: 95.65 ± 3.72 ng/mL | Long-term stability (30 days at – 80 °C) Mean ± S.D. concentration [3, 8]: 87.31 ± 4.62 ng/mL | Short-term stability (6 h at room temperature) Mean ± S.D concentration [3, 8]: 88.28 ± 2.72 ng/mL | Freeze-thaw stability (3 cycles) Mean ± S.D. concentration [3, 9]: 2.07 ± 0.17 ng/mL | Long-term stability (30 days at – 80 °C) Mean ± S.D. concentration [3, 9]: 1.73 ± 0.05 ng/mL | Short-term stability (6 h at room temperature) Mean ± S.D concentration [3, 9]: 1.98 ± 0.16 ng/mL | Freeze-thaw stability (3 cycles) Mean ± S.D. concentration [3, 10]: 10.03 ± 0.84 ng/mL | Long-term stability (30 days at – 80 °C) Mean ± S.D. concentration [3, 10]: 8.95 ± 0.42 ng/mL | Short-term stability (6 h at room temperature) Mean ± S.D concentration [3, 10]: 8.97 ± 0.70 ng/mL
SMILES: O=C(/C=C/c1ccc(O)c(O)c1)O[C@@H]1C[C@](O)(C(=O)O)C[C@@H](O)[C@H]1O [Chlorogenic acid, chlorogenic acid]
